Test results taken from patent US20080194654A1, “HYDROXY-SUBSTITUTED ARYL SULFAMIDE DERIVATIVES AND METHODS OF THEIR USE” (Wyeth, priority 2006, published 2008).

Molecular target: hDAT (Homo sapiens, UniProt Q01959)
Experiment: Dopamine transporter (hDAT) membrane binding assay

Sequence of hDAT (Q01959 whole entry): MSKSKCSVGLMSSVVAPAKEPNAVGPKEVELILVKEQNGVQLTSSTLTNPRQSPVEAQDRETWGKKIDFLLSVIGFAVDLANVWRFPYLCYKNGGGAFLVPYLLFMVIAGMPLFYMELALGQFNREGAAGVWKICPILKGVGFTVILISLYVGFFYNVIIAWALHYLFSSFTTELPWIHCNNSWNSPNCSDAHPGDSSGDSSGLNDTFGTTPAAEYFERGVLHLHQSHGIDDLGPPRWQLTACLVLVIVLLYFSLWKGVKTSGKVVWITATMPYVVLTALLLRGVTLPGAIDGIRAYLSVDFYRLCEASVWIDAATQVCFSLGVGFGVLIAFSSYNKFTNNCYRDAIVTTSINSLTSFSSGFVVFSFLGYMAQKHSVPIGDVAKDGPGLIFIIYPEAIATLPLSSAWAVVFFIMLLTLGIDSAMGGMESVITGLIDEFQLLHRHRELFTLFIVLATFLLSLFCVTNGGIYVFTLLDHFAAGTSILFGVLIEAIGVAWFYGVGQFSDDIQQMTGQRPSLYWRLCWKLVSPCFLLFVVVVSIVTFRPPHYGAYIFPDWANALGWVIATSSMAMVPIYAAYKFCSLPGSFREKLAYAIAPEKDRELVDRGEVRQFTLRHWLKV

In the case of CCNC[C@@H](O)CCN1c2ccccc2N(c2ccccc2F)S1(=O)=O, the IC50 is reported as over 1000 nM.
